Assay results published in patent publication US6759419B2, “Pyrrolidinone derivatives, their preparation and pharmaceutical composition comprising the same” (Korea Institute of Science and Technology, priority 2001, dated 2004).

How the values were obtained:
muscarinic receptors = assay: [3H]-N-methyl-scopolamine ([3H]-NMS) affinity screening test; parameters: species or system rat; conditions: inhibition of 50% of specific binding of [3H]-NMS to the receptor; cortex receptor of rats
Text: [^3H]-N-methyl-scopolamine ([^3H]-NMS) Affinity Screening Test
In order to exclude the interaction between subtypes, human recombinant muscarinic receptor subtypes 1, 2 and 3 expressed in CHO cells (M1, M2 and M3, Biosignal, Canada) were purchased and used as receptor sources. [^3H]-N-methyl-scopolamine (NEN, NET-636) was used as radioisotope labeled ligands, and atropine was used for the measurement of the non-specific binding ability. About 10 kinds of experimental apparatuses including Liquid Scintillation Counter (MicroBeta 1450 plus), Inotech cell harvester (96-well) were used.
In order to determine the effect of each compound on M1 and M2 receptors, the compounds were reacted with the receptors using radioisotope labeled ligands. After the reaction, the excess unbound ligands were removed by filtering with a glass fiber filter. The amount of radioisotopes remaining on the washed filter plate was then measured to quantify the binding reaction between the receptors and the ligands and, from the results, the affinity of the drugs for the receptors was determined.
The freeze-stored receptors at −70° C. were suspended in test buffer solutions and then the screening test (BioRad protein) was carried out to determine the optimum concentration of the proteins. Thereafter, 50 μL of hot-ligands and 10 μL of test drugs were added to 96-well plate and 100 μL of 50 mM TRIS buffer (pH 7.2) containing 10 mM MgCl2 and 1 mM EDTA was added as a test buffer. The final volume of the reaction was […]. The reaction was initiated by adding 100 μL of the diluted receptor suspension, and continued for 60 minutes on a shaking incubator at 27° C. This test for the test drugs was repeated four times. After 60 minutes, the reaction was terminated by adding cold TRIS buffer (0.5 mL, pH 7.4). The excess unbound radioisotopes were removed from the reaction mixture using Inotech cell harvester system. After washing the mixture, the radioactivity detected by the filter mat was measured using Liquid Scintillation Counter. As primary stage of the efficacy screening, the drugs at two concentrations (1 μM, 10 μM) were screened for their affinity for the receptors. As secondary stage, the drugs showing remarkable efficacies were determined at the lower concentrations. Finally, IC50 values were calculated at the gradient of 10 concentrations. […] From the saturation affinity screening test, Kd and Bmax values, and IC50 or Ki values of each test drugs were calculated by observing the non-linear regression using prism (Graphpad software Inc.,USA). […]
(§1) The following table 1 illustrates the affinity of representative compounds of the present invention for muscarinic receptors measured by binding of [^3H]-N-methyl scopolamine ([^3H]-NMS) and [^3H]-oxotremorine ([^3H]-Oxo-M) to cortex receptor of rats. […]

[1] = molecular target: muscarinic receptors (Oxo-M binding receptor, forebrain synapse membranes); assay: [3H]-oxotremorine-M ([3H]-Oxo-M) affinity screening test; conditions: inhibition of 50% of specific binding of [3H]-Oxo-M (5 nM) to the receptor; rat brain membranes
Method: [^3H]-oxotremorine-M ([^3H]-Oxo-M) Affinity Screening Test
The experimental principle was the same as [^3H]-NMS affinity screening test. The present experiment was carried out in order to identify the pharmacological functions (an agonist or antagonist) of the compounds showing high affinity in [3H]-NMS affinity screening test. The functions of the compounds may be determined by carrying out both of [^3H]-NMS and [^3H]-Oxo-M (oxotremorine) affinity screening tests to measure their respective IC50 values and calculating ratios (NMS/Oxo-M) of the measured IC50 values. Generally, the compounds are evaluated as muscarinic receptor full agonists when the ratio is greater than 180, as partial agonists when the ratio is from 14 to 130, and as antagonists when the ratio is from 0.2 to 1.9.
Preparation of Brain Membrane
Synapse membranes for binding assay of Oxo-M binding receptor of muscarinic receptors were directly prepared and used in the laboratory as follows: male Sparague-Dawley rats (supplied from Laboratory Animal Center of Korea Research Institute of Chemical Technology, 250 to 300 g) were sacrificed by decapitation. The brain tissues were immediately removed and the forebrain was obtained, which was sectioned into small pieces. After adding 10-fold amount of ice-cooled solution of sucrose (0.32M), the sectioned forebrain was homogenized using Teflon-glass homogenizer (Contorque, Eberbach) at 10 strokes and 500 rpm, centrifuged at 1000 g for 15 minutes, and then the supernatant was again centrifuged at 17000 g for 20 minutes. The pellet was stored at −20° C. and then used.
Before the pellet was used at this assay, it was suspended in 10 mL of […] HEPES buffer (pH 7.4), again centrifuged at 17000 g for 15 minutes and then washed. Finally, the washed membrane was diluted in ice-cooled 20 mM HEPES buffer (pH 7.4) to the final concentration of 1:100 (wet wt/v) and used at this assay. All test samples were tested four times, and 20 mM HEPES buffer (pH 7.4) was used as a buffer for screening test. […] The radioactivity of the receptor binding ligands was detected by Liquid Scintillation Counter (MicroBeta Plus, Wallac, Finland).
The test drugs were diluted sequentially for the required concentrations by dissolving them in dimethylsulfoxide (DMSO) and used in the test. […] From the saturated affinity screening test, Kd and Bmax values, and IC50 or Ki values of respective test drugs were calculated by observing the non-linear regression using prism (Graphpad software Inc., USA). […]
as §1

Row | IC50 (muscarinic receptors) | IC50 [1] | SMILES
1 | 1490 nM | 370 nM | CN1CCC=C(c2cc(CN3CCCC3=O)on2)C1 [Example 23, 1-[3-(1-methyl-1,2,5,6-tetrahydro-pyridin-3-yl)-isoxazol-5-yl-methyl]-pyrrolidin-2-one]
2 | 180 nM | 30 nM | CN1CCC=C(C2=NOC(CN3CCCC3=O)C2)C1 (centres unmarked) [Example 18, 1-[3-(1-methyl-1,2,5,6-tetrahydro-pyridin-3-yl)-4,5-dihydro-isoxazol-5-yl-methyl]-pyrrolidin-2-one]
3 | 8310 nM | 220 nM | CN1CCC=C(C2=NOC(N3CCCC3=O)C2)C1 (centres unmarked) [Example 15, 1-[3-(1-methyl-1,2,5,6-tetrahydropyridin-3-yl)-4,5-dihydro-isoxazol-5-yl]-pyrrolidin-2-one]

Row | SMILES | IC50 (muscarinic receptors) | IC50 [1]
4 | COC(=O)C1=CCCN(C)C1 [Arecoline, reference compound] | 87100 nM | 140 nM
